From the NIST ThermoML archive (doi:10.1021/je200788z)

How the values were obtained:
[1] = 101.33 kPa, Liquid; for speed of sound: Sing-around technique in a fixed-path interferometer; for mass density: Vibrating tube method
[2] = refractive index (Na D-line) (dimensionless); settings: 101.33 kPa, Liquid, Standard Abbe refractometry

CC(C)OC(=O)CC[C@H]([NH3+])C(=O)OC(C)C.CCCCCCCCCCCCOS(=O)(=O)[O-]
Settings | mass density, [1] [kg/m3] | refractive index, [2] | speed of sound, [1] [m/s]
288.15 K | 1057.9 | 1.4575 | 1439.7
293.15 K | 1054.11 | 1.4559 | 1412.8
298.15 K | 1050.31 | 1.4542 | 1389
303.15 K | 1046.47 | 1.4528 | 1367.6
308.15 K | 1042.57 | 1.4509 | 1347.9
313.15 K | 1038.6 | 1.4493 | 1329.5
318.15 K | 1034.81 | 1.4476 | 1312
323.15 K | 1031.13 | 1.4461 | 1295.3
328.15 K | 1027.46 | 1.4442 | 1279.2
333.15 K | 1023.79 | 1.4429 | 1263.5
338.15 K | 1021.2 | 1.441 | 1248.3
343.15 K | 1016.44 | 1.4392 | 1233.6

CC(C)OC(=O)[C@@H]([NH3+])C(C)C.CCCCCCCCCCCCOS(=O)(=O)[O-]
Settings | mass density, [1] [kg/m3] | refractive index, [2] | speed of sound, [1] [m/s]
288.15 K | 1033.35 | 1.4555 | 1438.4
293.15 K | 1029.74 | 1.4541 | 1418.5
298.15 K | 1026.11 | 1.4527 | 1400.5
303.15 K | 1022.44 | 1.4514 | 1382.9
308.15 K | 1018.71 | 1.4495 | 1365.9
313.15 K | 1014.93 | 1.4483 | 1349.4
318.15 K | 1011.36 | 1.4465 | 1333.2
323.15 K | 1007.86 | 1.445 | 1317.4
328.15 K | 1004.37 | 1.4434 | 1301.9
333.15 K | 1000.88 | 1.4419 | 1286.6
338.15 K | 997.39 | 1.4403 | 1270.4
343.15 K | 993.9 | 1.4388 | 1254.9

CC(C)COC(=O)[C@@H]1CCC[NH2+]1.CCCCCCCCCCCCOS(=O)(=O)[O-] [(S)-2-(isobutoxycarbonyl)pyrrolidinium dodecyl sulfate]
Settings | mass density, [1] [kg/m3] | refractive index, [2] | speed of sound, [1] [m/s]
288.15 K | 1043.22 | 1.4648 | 1460.2
293.15 K | 1039.54 | 1.4623 | 1445.2
298.15 K | 1035.88 | 1.4598 | 1429.2
303.15 K | 1032.22 | 1.4574 | 1413
308.15 K | 1028.57 | 1.4549 | 1397.2
313.15 K | 1024.92 | 1.4524 | 1381.5
318.15 K | 1021.27 | 1.45 | 1366.1
323.15 K | 1017.72 | 1.4477 | 1349.1
328.15 K | 1014.21 | 1.4452 | 1332.9
333.15 K | 1010.85 | 1.4427 | 1316.8
338.15 K | 1007.61 | 1.4401 | 1301.5
343.15 K | 1004.98 | 1.4378 | 1286.2

CC(C)COC(=O)CC[C@H]([NH3+])C(=O)OCC(C)C.CCCCCCCCCCCCOS(=O)(=O)[O-]
Settings | mass density, [1] [kg/m3] | refractive index, [2] | speed of sound, [1] [m/s]
323.15 K | 1014.45 | 1.4472 | 1330.6
328.15 K | 1010.78 | 1.4453 | 1314.4
333.15 K | 1007.13 | 1.4432 | 1299.9
338.15 K | 1003.54 | 1.4414 | 1284.2
343.15 K | 1000 | 1.4393 | 1270.5
